Experimental data as given in patent US9198855B2, “Veterinary dermatologic composition” (Dermaconcept JMC, priority 2001, dated 2015).
Values after ≈ are worked out from the molar mass of the structure shown.

Assays:
[1] = system: Staphylococcus aureus; conditions: inflammated, depilated guinea pig skin; cited from earlier work
[2] = system: Candida albicans; conditions: inflammated, depilated guinea pig skin; cited from earlier work
[3] = system: Staphylococcus Intermedius; assay: Multiplication of Staphylococcus Intermedius cultures, doses 0-100 ppm in usual culture environment without solubilising agent; format: cell-based; conditions: for concentration completely inhibiting multiplication of Staphylococcus Intermedius cultures: complete inhibition; for concentration partly inhibiting multiplication of Staphylococcus Intermedius cultures: partial inhibition
Method: (§1) The minimum inhibitory concentration in case of Malassezia pachyadermatis was 25 ppm. Experiments were carried out using doses of 0, 5, 10, 25, 50 and 100 ppm of phytosphingosin and its hydrochloric acid salt on Staphylococcus Intermedius in usual culture environment without solubilising agent.

[4] = system: Malassezia pachyadermatis; assay: In-vitro mycological study, minimum inhibitory concentration; format: cell-based, Malassezia pachydermatis
Method: as §1
However the effect is not limited to cats and dogs but extends to other furry animals, such as horses, rabbits, […]

Row | Structure (SMILES) | activity against Staphylococcus aureus [1] | activity against Candida albicans [2] | concentration completely inhibiting multiplication of Staphylococcus Intermedius cultures [3] | concentration partly inhibiting multiplication of Staphylococcus Intermedius cultures [3] | MIC ([4]; Malassezia pachyadermatis) | anti-fungal action against Malassezia pachydermatis ([4]; in-vitro mycological studies)
1 | CCCCCCCCCCCCCCC[C@@H](O)[C@@H](N)CO [sphinganin] | effective | effective |  |  |  | 
2 | CCCCCCCCCCCCCC[C@@H](O)[C@@H](O)[C@@H](N)CO.Cl [phytosphingosin hydrochloric acid salt, Phytosphingosin hydrochloric acid] |  |  | 10 ppm | 5 ppm |  | 
3 | CCCCCCCCCCCCCC[C@@H](O)[C@@H](O)[C@@H](N)CO [phytosphingosin] |  |  | 10 ppm | 5 ppm | 25 µg/mL (≈ 78.7 µM) | anti-fungal action
4 | CCCCCCCCCCCCC/C=C/[C@@H](O)[C@@H](N)CO [Sphingosin, sphingosin] | little effect | little effect |  |  |  | 
